# Patent US20140291659A1, “DIOXAANTHANTHRENE COMPOUND, LAMINATED STRUCTURE AND FORMATION METHOD THEREOF, AND ELECTRONIC DEVICE AND MANUFACTURING METHOD THEREOF” (Sony Corporation, priority 2011, published 2014)
# Assay: Solubility in an organic solvent (toluene)
# Format: physicochemical
# Conditions: for Solubility: grams of PXX compound dissolving in 10 grams of toluene
# Experimental: The melting point and the mesophase transition temperature of the PXX compound can be determined by TG-DTA (thermogravimetry/differential thermal analysis) and DSC (differential scanning calorimetry). Further, solubility in an organic solvent was measured. […] In Table 1, the mesophase transition temperature is denoted as “transition temperature”. […]
SMILES,Solubility,Amount dissolved in toluene (in 100 grams of toluene)
CC(C)c1ccc(-c2ccc3oc4ccc5c(-c6ccc(C(C)C)cc6)ccc6oc7ccc2c3c7-c4c65)cc1 [Comparative Example 2D],0.37 g,0.37 grams
CC(C)CCc1ccc(-c2ccc3oc4ccc5c(-c6ccc(CCC(C)C)cc6)ccc6oc7ccc2c3c7-c4c65)cc1 [Working Example 2B],1.3 g,
CC(C)Cc1ccc(-c2ccc3oc4ccc5c(-c6ccc(CC(C)C)cc6)ccc6oc7ccc2c3c7-c4c65)cc1 [Working Example 2A],1.5 g,
